Data as given in patent US6358885B1, “Substituted phenylheterocyclic herbicides” (Mississippi State University, priority 1992, dated 2002).

Assays:
barley [1] = assay: Test B preemergence/postemergence greenhouse plant response rating 0 to 10; format: in vivo, Hordeum vulgare; conditions: for Plant response rating, Barley: 0 to 10 scale
Summary of the method: (§1)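 Planted seeds are treated preemergence with compound dissolved in a non-phytotoxic solvent, while postemergence applications go onto plants of two to eighteen cm. Plants stay in the greenhouse twelve to sixteen days and are then rated visually relative to controls.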

bedstraw [2] = assay: as above; format: in vivo, Galium aparine; conditions: POSTEMERGENCE
Summary of the method: as §1

blackgrass [3] = assay: as above; format: in vivo, Alopecurus myosuroides; conditions: for Plant response rating, Blackgrass: 0 to 10 scale
Summary of the method: as §1

cheatgrass = assay: as above; format: in vivo, Bromus secalinus; conditions: for Plant response rating, Cheatgrass: 0 to 10 scale
Summary of the method: as §1

cotton = assay: as above; format: in vivo, Gossypium hirsutum; conditions: for Plant response rating, Cotton: 0 to 10 scale
Summary of the method: as §1

rape = assay: as above; format: in vivo, Brassica napus; conditions: 0 to 10 scale
Summary of the method: as §1

rice = assay: as above; format: in vivo, Oryza sativa; conditions: 0 to 10 scale
Summary of the method: as §1

sorghum [4] = assay: as above; format: in vivo, Sorghum bicolor; conditions: 0 to 10 scale
Summary of the method: as §1

wheat = assay: as above; format: in vivo, Triticum aestivum; conditions: 0 to 10 scale
Summary of the method: as §1

barley [5] = assay: Test C preemergence/postemergence greenhouse plant response rating 0 to 100; format: in vivo, Hordeum vulgare; conditions: POSTEMERGENCE
Summary of the method: (§2)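 Compounds in non-phytotoxic solvent went onto sandy loam before emergence (seeded one day earlier) or onto plants at the one-to-four leaf stage. Duck salad was treated via flood water (~2.5 cm, maintained) over silt loam.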

bedstraw [6] = assay: as above; format: in vivo, Galium aparine; conditions: POSTEMERGENCE
Summary of the method: as §2

blackgrass [7] = assay: as above; format: in vivo, Alopecurus myosuroides; conditions: POSTEMERGENCE
Summary of the method: as §2

pigweed = assay: as above; format: in vivo, Amaranthusretroflexus; conditions: POSTEMERGENCE
Summary of the method: as §2

ryegrass = assay: as above; format: in vivo, Lolium multiflorum; conditions: POSTEMERGENCE
Summary of the method: as §2

sorghum [8] = assay: as above; format: in vivo, Sorghum bicolor; conditions: POSTEMERGENCE
Summary of the method: as §2

sugar beet = assay: as above; format: in vivo, Beta vulgaris; conditions: POSTEMERGENCE
Summary of the method: as §2

wild buckwheat = assay: as above; format: in vivo, Polygonum convolvulus; conditions: POSTEMERGENCE
Summary of the method: as §2

duck salad = assay: Test C flood test plant response rating 0 to 100; format: in vivo, Heteranthera limosa
Summary of the method: as §2

`CC(C)N1C(=O)COc2cc(F)c(-c3nn4c(c3Cl)CCCC4)cc21` [Compound 31] was tested, and the “Plant response rating, Barley” value (barley [1]; POSTEMERGENCE, Rate 10 g/ha) was 5, the “Plant response rating (0 to 10 scale), Barley” value (barley [1]; POSTEMERGENCE, Rate 50 g/ha) was 5 and the “Plant response rating, Barley” value (barley [1]; PREEMERGENCE, Rate 10 g/ha) was 0. For the same compound, the “Plant response rating, Barley” value (barley [1]; PREEMERGENCE, Rate 50 g/ha) was 0, the “Plant response rating, Bedstraw” value (bedstraw [2]; Rate 10 g/ha, 0 to 10 scale) was 10 and the “Plant response rating (0 to 10 scale), Bedstraw” value (bedstraw [2]; Rate 50 g/ha) was 10. For the same compound, the “Plant response rating, Blackgrass” value (blackgrass [3]; POSTEMERGENCE, Rate 10 g/ha) was 4, the “Plant response rating (0 to 10 scale), Blackgrass” value (blackgrass [3]; POSTEMERGENCE, Rate 50 g/ha) was 4 and the “Plant response rating, Blackgrass” value (blackgrass [3]; PREEMERGENCE, Rate 10 g/ha) was 3. The “Plant response rating, Blackgrass” value (blackgrass [3]; PREEMERGENCE, Rate 50 g/ha) was 6, the “Plant response rating, Cheatgrass” value (cheatgrass; POSTEMERGENCE, Rate 10 g/ha) was 5 and the “Plant response rating (0 to 10 scale), Cheatgrass” value (cheatgrass; POSTEMERGENCE, Rate 50 g/ha) was 6. For the same compound, the “Plant response rating, Cheatgrass” value (cheatgrass; PREEMERGENCE, Rate 10 g/ha) was 2, the “Plant response rating, Cheatgrass” value (cheatgrass; PREEMERGENCE, Rate 50 g/ha) was 6 and the “Plant response rating, Cotton” value (cotton; POSTEMERGENCE, Rate 10 g/ha) was 10. The “Plant response rating (0 to 10 scale), Cotton” value (cotton; POSTEMERGENCE, Rate 50 g/ha) was 10, the “Plant response rating, Cotton” value (cotton; PREEMERGENCE, Rate 10 g/ha) was 0 and the “Plant response rating, Cotton” value (cotton; PREEMERGENCE, Rate 50 g/ha) was 0. The “Plant response rating, Rape” value (rape; POSTEMERGENCE, Rate 10 g/ha) was 5, the “Plant response rating, Rape” value (rape; POSTEMERGENCE, Rate 50 g/ha) was 9 and the “Plant response rating, Rape” value (rape; PREEMERGENCE, Rate 50 g/ha) was 1. For the same compound, the “Plant response rating, Rice” value (rice; POSTEMERGENCE, Rate 10 g/ha) was 4, the “Plant response rating, Rice” value (rice; POSTEMERGENCE, Rate 50 g/ha) was 7 and the “Plant response rating, Rice” value (rice; PREEMERGENCE, Rate 50 g/ha) was 0. For the same compound, the “Plant response rating, Sorghum” value (sorghum [4]; POSTEMERGENCE, Rate 10 g/ha) was 5, the “Plant response rating, Sorghum” value (sorghum [4]; POSTEMERGENCE, Rate 50 g/ha) was 4 and the “Plant response rating, Sorghum” value (sorghum [4]; PREEMERGENCE, Rate 50 g/ha) was 0. The “Plant response rating, Wheat” value (wheat; POSTEMERGENCE, Rate 10 g/ha) was 5, the “Plant response rating, Wheat” value (wheat; POSTEMERGENCE, Rate 50 g/ha) was 5 and the “Plant response rating, Wheat” value (wheat; PREEMERGENCE, Rate 50 g/ha) was 1. For the same compound, the “Plant response rating Barley Igri” value (barley [5]; 62 g/ha, 0 to 100 scale) was 50, the “Plant response rating (0 to 100), Barley Igri” value (barley [5]; Rate 1 g/ha) was 20 and the “Plant response rating (0 to 100), Barley Igri” value (barley [5]; Rate 4 g/ha) was 30. For the same compound, the “Plant response rating (0 to 100), Barley Igri” value (barley [5]; Rate 16 g/ha) was 40, the “Plant response rating, Bedstraw” value (bedstraw [6]; 62 g/ha, 0 to 100 scale) was 100 and the “Plant response rating (0 to 100), Bedstraw” value (bedstraw [6]; Rate 1 g/ha) was 75. For the same compound, the “Plant response rating (0 to 100), Bedstraw” value (bedstraw [6]; Rate 4 g/ha) was 85, the “Plant response rating (0 to 100), Bedstraw” value (bedstraw [6]; Rate 16 g/ha) was 100 and the “Plant response rating, Blackgrass” value (blackgrass [7]; 62 g/ha, 0 to 100 scale) was 40. For the same compound, the “Plant response rating (0 to 100), Blackgrass” value (blackgrass [7]; Rate 1 g/ha) was 10, the “Plant response rating (0 to 100), Blackgrass” value (blackgrass [7]; Rate 4 g/ha) was 20 and the “Plant response rating (0 to 100), Blackgrass” value (blackgrass [7]; Rate 16 g/ha) was 30. For the same compound, the “Plant response rating Pigweed” value (pigweed; 62 g/ha, 0 to 100 scale) was 100, the “Plant response rating (0 to 100), Pigweed” value (pigweed; Rate 1 g/ha) was 95 and the “Plant response rating (0 to 100), Pigweed” value (pigweed; Rate 4 g/ha) was 100. The “Plant response rating (0 to 100), Pigweed” value (pigweed; Rate 16 g/ha) was 100, the “Plant response rating Ryegrass” value (ryegrass; 62 g/ha, 0 to 100 scale) was 40 and the “Plant response rating (0 to 100), Ryegrass” value (ryegrass; Rate 1 g/ha) was 10. For the same compound, the “Plant response rating (0 to 100), Ryegrass” value (ryegrass; Rate 4 g/ha) was 20, the “Plant response rating (0 to 100), Ryegrass” value (ryegrass; Rate 16 g/ha) was 30 and the “Plant response rating, Sorghum” value (sorghum [8]; 62 g/ha, 0 to 100 scale) was 50. The “Plant response rating (0 to 100), Sorghum” value (sorghum [8]; Rate 1 g/ha) was 20, the “Plant response rating (0 to 100), Sorghum” value (sorghum [8]; Rate 4 g/ha) was 40 and the “Plant response rating (0 to 100), Sorghum” value (sorghum [8]; Rate 16 g/ha) was 50. The “Plant response rating, Sugar beet” value (sugar beet; 62 g/ha, 0 to 100 scale) was 100, the “Plant response rating (0 to 100), Sugar beet” value (sugar beet; Rate 1 g/ha) was 60 and the “Plant response rating (0 to 100), Sugar beet” value (sugar beet; Rate 4 g/ha) was 100. For the same compound, the “Plant response rating (0 to 100), Sugar beet” value (sugar beet; Rate 16 g/ha) was 100, the “Plant response rating, Wild buckwheat” value (wild buckwheat; 62 g/ha, 0 to 100 scale) was 100 and the “Plant response rating (0 to 100), Wild buckwheat” value (wild buckwheat; Rate 1 g/ha) was 70. The “Plant response rating (0 to 100), Wild buckwheat” value (wild buckwheat; Rate 4 g/ha) was 70, the “Plant response rating (0 to 100), Wild buckwheat” value (wild buckwheat; Rate 16 g/ha) was 100 and the “Plant response rating (0 to 100), Duck salad” value (duck salad; POSTEMERGENCE section, flood test, Rate 1 g/ha) was 0. For the same compound, the “Plant response rating (0 to 100), Duck salad” value (duck salad; POSTEMERGENCE section, flood test, Rate 4 g/ha) was 0, the “Plant response rating (0 to 100), Duck salad” value (duck salad; Rate 16 g/ha, under POSTEMERGENCE head (flood test species)) was 40 and the “Plant response rating Duck salad” value (duck salad; flood test species listed under POSTEMERGENCE, 62 g/ha, 0 to 100 scale) was 40.
